Results taken from ChEMBL document CHEMBL5729456, “Compounds useful in HIV therapy” (2022).

Assay: Jurkat Latency Reversal Assay: Jurkat HIV-luciferase clones were maintained in RPMI medium 1640 (Gibco by Life Technologies) containing 10% (vol/vol) fetal bovine serum (SAFC/Sigma-Aldrich) and 25 units/mL penicillin, 25 units/mL streptomycin (Gibco by Life Technologies), and were split 1:4 every 3 to 4 days to maintain a cell density of ˜0.3 to 1 million cells/mL. The Jurkat clones were maintained with the addition of 500 nM EFV in the medium. Three Jurkat cell clones (C16, I15, and N6), each harboring one or two integrated HIV proviruses expressing the luciferase reporter gene, were added at equal amounts for a total of 5,000 cells per well to 384-well plates containing compound titrations. Dose-response testing was performed on compounds dissolved in dimethyl sulfoxide (DMSO, Fisher Scientific, Merelbeke, Belgium) dispensed in duplicate serial 3-fold, 14-point titrations using a D300e Digital Droplet Dispenser (Hewlett-Packard) to give final assay concentrations of 10 μM to 2.1 pM in 50 μL of medium at 0.5% DMSO (vol/vol) final concentration. Cells and compound were incubated at 37° C. for 48 hours, unless otherwise indicated, followed by the addition of 20 μL of Steady-Glo® Luciferase (Promega). Luminescence resulting from the induction of the virally expressed luciferase was measured using an EnVision 2102 Multilabel Plate Reader (Perkin Elmer). Dose-response relationships were analyzed with GraphPad PRISM 6 using a four-parameter logistic regression model to calculate the concentration of compound that gives half-maximal response (EC50) and the maximal percent activation compared to the vehicle control.

| SMILES | EC50 [nM] |
| --- | --- |
| CN[C@@H](C)C(=O)N[C@H]1CCS[C@H]2CC(C)(C)[C@@H](C(=O)N[C@H](C(=O)N[C@H]3CC[C@H](NC(=O)[C@@H](NC(=O)[C@H]4N5C(=O)[C@@H](NC(=O)[C@H](C)NC)CCS[C@H]5CC4(C)C)c4ccccc4)CC3)c3ccccc3)N2C1=O | 53.7 |
| CN[C@@H](C)C(=O)N[C@H]1CCS[C@H]2CC(C)(C)[C@@H](C(=O)N[C@H]3c4ccccc4C[C@H]3C(=O)N[C@H]3CC[C@H](NC(=O)[C@@H]4Cc5ccccc5[C@@H]4NC(=O)[C@H]4N5C(=O)[C@@H](NC(=O)[C@H](C)NC)CCS[C@H]5CC4(C)C)CC3)N2C1=O | 429 |
| CN[C@@H](C)C(=S)N[C@H]1CCS[C@H]2CC(C)(C)[C@@H](C(=O)N[C@H]3c4ccccc4CC[C@H]3C(=O)N[C@H]3CC[C@H](NC(=O)[C@@H]4CCc5ccccc5[C@@H]4NC(=O)[C@H]4N5C(=O)[C@@H](NC(=S)[C@H](C)NC)CCS[C@H]5CC4(C)C)CC3)N2C1=O | 6.8 |
| CN[C@@H](C)C(=O)N[C@H]1CCS[C@H]2CC(C)(C)[C@@H](C(=O)N[C@H]3c4ccccc4CC[C@H]3C(=O)N[C@H]3CC[C@H](NC(=O)[C@@H]4CCc5ccccc5[C@@H]4NC(=O)[C@H]4N5C(=O)[C@@H](NC(=O)[C@H](C)NC)CCS[C@H]5CC4(C)C)CC3)N2C1=O | 324 |
| CN[C@@H](C)C(=S)N[C@H]1CCS[C@H]2CC(C)(C)[C@@H](C(=O)N[C@H]3c4ccccc4C[C@H]3C(=O)N[C@H]3CC[C@H](NC(=O)[C@@H]4Cc5ccccc5[C@@H]4NC(=O)[C@H]4N5C(=O)[C@@H](NC(=S)[C@H](C)NC)CCS[C@H]5CC4(C)C)CC3)N2C1=O | 32 |
| CN[C@@H](C)C(=S)N[C@H]1CCS[C@H]2CC(C)(C)[C@@H](C(=O)N[C@H](C(=O)N[C@H]3CC[C@H](NC(=O)[C@@H](NC(=O)[C@H]4N5C(=O)[C@@H](NC(=S)[C@H](C)NC)CCS[C@H]5CC4(C)C)c4ccccc4)CC3)c3ccccc3)N2C1=O | 89.5 |
